In the NIST ThermoML archive (doi:10.1016/j.fluid.2019.05.015):

What was measured:
[1] = refractive index (Na D-line) (dimensionless); xn = mol fraction of the nth substance listed; details: 100 kPa, Liquid, Standard Abbe refractometry
[2] = mean ionic activity coefficient (dimensionless); mn = molality of the nth substance listed, in mol/kg; details: 100 kPa, Liquid, Electrochemical cell potential

CCn1cc[n+](C)c1.[Br-] [1-ethyl-3-methylimidazolium bromide] + O
Details	mean ionic activity coefficient	refractive index
[1], 298.2 K, x2 = 0.0971	–	1.549
[1], 298.2 K, x2 = 0.188	–	1.545
[1], 298.2 K, x2 = 0.2981	–	1.536
[1], 298.2 K, x2 = 0.3857	–	1.5335
[1], 298.2 K, x2 = 0.471	–	1.525
[1], 298.2 K, x2 = 0.5966	–	1.5115
[1], 298.2 K, x2 = 0.6884	–	1.4985
[1], 298.2 K, x2 = 0.7863	–	1.4625
[1], 298.2 K, x2 = 0.8884	–	1.4305
[1], 308.2 K, x2 = 0.0926	–	1.5455
[1], 308.2 K, x2 = 0.1801	–	1.5425
[1], 308.2 K, x2 = 0.2947	–	1.534
[1], 308.2 K, x2 = 0.3829	–	1.53
[1], 308.2 K, x2 = 0.4714	–	1.5235
[1], 308.2 K, x2 = 0.5983	–	1.509
[1], 308.2 K, x2 = 0.6871	–	1.4955
[1], 308.2 K, x2 = 0.7851	–	1.4595
[1], 308.2 K, x2 = 0.888	–	1.427
[1], 318.2 K, x2 = 0.0923	–	1.5425
[1], 318.2 K, x2 = 0.1796	–	1.54
[1], 318.2 K, x2 = 0.2939	–	1.531
[1], 318.2 K, x2 = 0.382	–	1.5265
[1], 318.2 K, x2 = 0.4704	–	1.521
[1], 318.2 K, x2 = 0.5974	–	1.5065
[1], 318.2 K, x2 = 0.6862	–	1.4925
[1], 318.2 K, x2 = 0.7844	–	1.458
[1], 318.2 K, x2 = 0.8876	–	1.425
[2], 298.2 K, m1 = 0.021	0.8957	–
[2], 298.2 K, m1 = 0.0419	0.748	–
[2], 298.2 K, m1 = 0.0585	0.7149	–
[2], 298.2 K, m1 = 0.0791	0.6998	–
[2], 298.2 K, m1 = 0.0995	0.6908	–
[2], 298.2 K, m1 = 0.2548	0.5703	–
[2], 298.2 K, m1 = 0.4968	0.4953	–
[2], 298.2 K, m1 = 0.7334	0.45	–
[2], 298.2 K, m1 = 1.003	0.397	–
[2], 298.2 K, m1 = 1.244	0.378	–
[2], 298.2 K, m1 = 1.489	0.361	–
[2], 308.2 K, m1 = 0.0211	0.8798	–
[2], 308.2 K, m1 = 0.042	0.8527	–
[2], 308.2 K, m1 = 0.0586	0.8229	–
[2], 308.2 K, m1 = 0.0793	0.769	–
[2], 308.2 K, m1 = 0.0999	0.7385	–
[2], 308.2 K, m1 = 0.2555	0.6299	–
[2], 308.2 K, m1 = 0.4948	0.5249	–
[2], 308.2 K, m1 = 0.7324	0.4686	–
[2], 308.2 K, m1 = 1.003	0.42	–
[2], 308.2 K, m1 = 1.245	0.39	–
[2], 308.2 K, m1 = 1.489	0.375	–
[2], 308.2 K, m1 = 1.744	0.363	–
[2], 308.2 K, m1 = 1.995	0.346	–
[2], 308.2 K, m1 = 2.251	0.322	–
[2], 308.2 K, m1 = 2.499	0.307	–
[2], 318.2 K, m1 = 0.0093	0.8999	–
[2], 318.2 K, m1 = 0.0187	0.8927	–
[2], 318.2 K, m1 = 0.0418	0.8287	–
[2], 318.2 K, m1 = 0.0603	0.7921	–
[2], 318.2 K, m1 = 0.0786	0.7691	–
[2], 318.2 K, m1 = 0.1014	0.7508	–
[2], 318.2 K, m1 = 0.2568	0.6434	–
[2], 318.2 K, m1 = 0.4956	0.5317	–
[2], 318.2 K, m1 = 0.7332	0.4709	–
[2], 318.2 K, m1 = 1.003	0.423	–
[2], 318.2 K, m1 = 1.244	0.399	–
[2], 318.2 K, m1 = 1.487	0.385	–
[2], 318.2 K, m1 = 1.743	0.366	–
[2], 318.2 K, m1 = 1.995	0.344	–
[2], 318.2 K, m1 = 2.251	0.33	–
[2], 318.2 K, m1 = 2.5	0.32	–
